Results as given in patent US12180187B2, “1-phenyl-5-azinylpyrazolyl-3-oxyalkyl acids and their use for controlling unwanted plant growth” (BAYER AKTIENGESELLSCHAFT, priority 2019, dated 2024).

Columns and labels:
LOLRI [1] = test: Pre-emergence action at 320 g/ha against LOLRI; type: in vivo, Lolium rigidum; settings: visual scoring after about 3 weeks vs untreated controls
Method in brief: (§1)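 Weed seeds sown in pots and covered with soil; compounds formulated as WP or EC were sprayed onto the soil surface as aqueous suspension or emulsion with 0.5% additive at 600 l/ha water. Pots kept in greenhouse; activity scored visually after about 3 weeks versus untreated controls (100% = plants dead, 0% = like control).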

VERPE [2] = test: Pre-emergence action at 320 g/ha against VERPE; type: in vivo, Veronica persica; settings: visual scoring after about 3 weeks vs untreated controls
Method in brief: as §1

POLCO [3] = test: Pre-emergence action at 320 g/ha against POLCO; type: in vivo, Fallopia convolvulus (Polygonum convolvulus); settings: visual scoring after about 3 weeks vs untreated controls
Method in brief: as §1

ALOMY [4] = test: Pre-emergence action at 320 g/ha against ALOMY; type: in vivo, Alopecurus myosuroides; settings: scored visually after about 3 weeks vs untreated controls (100% = plants have died)
Method in brief: as §1

SETVI [5] = test: Pre-emergence action at 320 g/ha against SETVI; type: in vivo, Setaria viridis; settings: visual scoring after about 3 weeks vs untreated controls
Method in brief: as §1

DIGSA = test: Pre-emergence action at 320 g/ha against DIGSA; type: in vivo, Digitaria sanguinalis; settings: visual scoring after about 3 weeks vs untreated controls
Method in brief: as §1

VIOTR [6] = test: Pre-emergence action at 320 g/ha against VIOTR; type: in vivo, Viola tricolor; settings: dosage 320 g/ha
Method in brief: as §1

AVEFA [7] = test: Pre-emergence action at 320 g/ha against AVEFA; type: in vivo; settings: visual scoring after about 3 weeks vs untreated controls
Method in brief: as §1

PHBPU = test: Pre-emergence action at 320 g/ha against PHBPU; type: in vivo; settings: visual scoring after about 3 weeks vs untreated controls
Source text: b) Seeds of monocotyledonous and dicotyledonous weed plants and crop plants are placed in plastic or organic planting pots and covered with soil. The compounds of the invention, formulated in the form of wettable powders (WP) or as emulsion concentrates (EC), are then applied onto the surface of the covering soil as aqueous suspension or emulsion with addition of 0.5% additive at a water application rate of 600 l/ha (converted). After the treatment, the pots are placed in a greenhouse and kept under good growth conditions for the trial plants. After about 3 weeks, the effect of the preparations is scored visually in comparison with untreated controls as percentages. For example, 100% activity=the plants have died, 0% activity=like control plants. Tables 13 to 26 below show the effects of selected compounds of the general formula (I) on various harmful plants and at an application rate corresponding to 320 g/ha, which were obtained by the experimental procedure mentioned above.

AMARE [8] = test: Pre-emergence action at 320 g/ha against AMARE; type: in vivo, Amaranthus retroflexus; settings: visual scoring after about 3 weeks vs untreated controls
Method in brief: as §1

STEME [9] = test: Post-emergence action against STEME, 1.28 kg/ha; type: in vivo, Stellaria media; settings: dosage 1280 g/ha, visual rating about 3 weeks after treatment vs untreated controls (100% = plants died)
Method in brief: (§2)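 Visual rating against untreated plants about 3 weeks after spraying gives % activity, where 0% means like controls and 100% means plants died. Plants were treated post-emergence at the one-leaf stage with compound formulated as wettable powder or emulsion concentrate, applied at 600 L water/ha plus 0.5% additive.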

POAAN [10] = test: Pre-emergence action against POAAN, 1280 g/ha; type: in vivo, Poa annua; settings: visual scoring after about 3 weeks vs untreated controls, 100% = plants have died, 0% = like control plants
Method in brief: (§3)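 Sandy loam pots, seeds covered with soil; aqueous WP/EC spray on covering soil, 0.5% additive, 600 L/ha. Greenhouse growth, good conditions. Readout: visual % activity at ~3 weeks (0% = like control, 100% = dead).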

STEME [11] = test: Pre-emergence action against STEME, 1280 g/ha; type: in vivo, Stellaria media; settings: scored visually after about 3 weeks vs untreated controls (100% = plants have died)
Method in brief: as §3

POAAN [12] = test: Post-emergence action against POAAN, 1.28 kg/ha; type: in vivo, Poa annua; settings: dosage 1280 g/ha, visual rating about 3 weeks after treatment vs untreated controls
Method in brief: as §2

SETVI [13] = test: Pre-emergence action against SETVI, 1280 g/ha; type: in vivo, Setaria viridis; settings: visual scoring after about 3 weeks vs untreated controls, 100% = plants have died, 0% = like control plants
Method in brief: as §3

ECHCG [14] = test: Post-emergence action against ECHCG, 1.28 kg/ha; type: in vivo, Echinochloa crus-galli; settings: dosage 1280 g/ha, visual rating about 3 weeks after treatment vs untreated controls
Method in brief: as §2

AMARE [15] = test: Post-emergence action against AMARE, 1.28 kg/ha; type: in vivo, Amaranthus retroflexus; settings: dosage 1280 g/ha, visual rating about 3 weeks after treatment vs untreated controls (100% = plants died)
Method in brief: as §2

LOLRI [16] = test: Post-emergence action against LOLRI, 1.28 kg/ha; type: in vivo, Lolium rigidum; settings: dosage 1280 g/ha, visual rating about 3 weeks after treatment vs untreated controls
Method in brief: as §2

ALOMY [17] = test: Post-emergence action against ALOMY, 320 g/ha; type: in vivo, Alopecurus myosuroides; settings: dosage 320 g/ha, visual rating about 3 weeks after treatment vs untreated controls (100% = plants died)
Source text: (§4) Accordingly, the compounds of the invention have good herbicidal action against a broad spectrum of weed grasses and broad-leaved weeds and are therefore suitable for controlling unwanted vegetation by the post-emergence method. • b) Seeds of monocotyledonous and dicotyledonous weeds and crop plants are placed in sandy loam in plastic or organic planting pots, covered with soil and cultivated in a greenhouse under controlled growth conditions. 2 to 3 weeks after sowing, the test plants are treated at the one-leaf stage. The compounds of the invention, formulated in the form of wettable powders (WP) or as emulsion concentrates (EC), are then sprayed onto the green parts of the plants as aqueous suspension or emulsion with addition of 0.5% additive at a water application rate of 600 l/ha (converted). After the test plants have been kept in the greenhouse under optimum growth conditions for about 3 weeks, the activity of the preparations is rated visually in comparison to untreated controls. For example, 100% activity=the plants have died, 0% activity=like control plants. Tables 39 to 49 below show the effects of selected compounds of the general formula (I) according to Tables 1 and 2 on various harmful plants and at an application rate corresponding to 320 g/ha, which were obtained by the experimental procedure mentioned above.

SETVI [18] = test: Post-emergence action against SETVI, 1.28 kg/ha; type: in vivo, Setaria viridis; settings: dosage 1280 g/ha, visual rating about 3 weeks after treatment vs untreated controls
Method in brief: as §2

MATIN [19] = test: Post-emergence action against MATIN, 1.28 kg/ha; type: in vivo, Tripleurospermum inodorum (Matricaria inodora); settings: dosage 1280 g/ha, visual rating about 3 weeks after treatment vs untreated controls (100% = plants died)
Method in brief: as §2

VIOTR [20] = test: Post-emergence action at 320 g/ha against VIOTR; type: in vivo, Viola tricolor; settings: visual rating about 3 weeks after treatment vs untreated controls
Source text: as §4

VERPE [21] = test: Post-emergence action against VERPE, 1.28 kg/ha; type: in vivo, Veronica persica; settings: dosage 1280 g/ha, visual rating about 3 weeks after treatment vs untreated controls (100% = plants died)
Method in brief: as §2

POLCO [22] = test: Post-emergence action at 320 g/ha against POLCO; type: in vivo, Fallopia convolvulus (Polygonum convolvulus); settings: visual rating about 3 weeks after treatment vs untreated controls
Source text: as §4

AMARE [23] = test: Post-emergence action at 320 g/ha against AMARE; type: in vivo, Amaranthus retroflexus; settings: visual rating about 3 weeks after treatment vs untreated controls
Source text: as §4

AVEFA [24] = test: Post-emergence action at 320 g/ha against AVEFA; type: in vivo; settings: visual rating about 3 weeks after treatment vs untreated controls
Source text: as §4

VERPE [25] = test: Pre-emergence action against VERPE, 1280 g/ha; type: in vivo, Veronica persica; settings: scored visually after about 3 weeks vs untreated controls (100% = plants have died)
Method in brief: as §3

LOLRI [26] = test: Pre-emergence action against LOLRI, 1280 g/ha; type: in vivo, Lolium rigidum; settings: visual scoring after about 3 weeks vs untreated controls, 100% = plants have died, 0% = like control plants
Method in brief: as §3

ECHCG [27] = test: Pre-emergence action against ECHCG, 1280 g/ha; type: in vivo, Echinochloa crus-galli; settings: visual scoring after about 3 weeks vs untreated controls, 100% = plants have died, 0% = like control plants
Method in brief: as §3

AMARE [28] = test: Pre-emergence action against AMARE, 1280 g/ha; type: in vivo, Amaranthus retroflexus; settings: scored visually after about 3 weeks vs untreated controls (100% = plants have died)
Method in brief: as §3

MATIN [29] = test: Pre-emergence action against MATIN, 1280 g/ha; type: in vivo, Tripleurospermum inodorum (Matricaria inodora); settings: scored visually after about 3 weeks vs untreated controls (100% = plants have died)
Method in brief: as §3

O=C(O)COc1nn(-c2ccccc2F)c(-c2ccc(F)nc2)c1F [VII-115]
Pre-emergence action against LOLRI in % (LOLRI [1]): 90%
Pre-emergence action against VERPE in % (VERPE [2]): 90%
Pre-emergence action against POLCO in % (POLCO [3]): 80%
Pre-emergence action at 320 g/ha against ALOMY in % (ALOMY [4]): 100%
Pre-emergence action against SETVI in % (SETVI [5]): 100%
Pre-emergence action against DIGSA in % (DIGSA): 100%
Pre-emergence action against VIOTR in % (VIOTR [6]): 100%
Pre-emergence action against AVEFA in % (AVEFA [7]): 90%
Pre-emergence action against PHBPU in % (PHBPU): 90%
Pre-emergence action against AMARE in % (AMARE [8]): 100%

CCOC(=O)COc1nn(-c2ccccc2F)c(-c2ccnc(F)c2)c1Br [VIII-002]
Post-emergence action against STEME (STEME [9]): 100%
Pre-emergence action against POAAN (POAAN [10]): 100%
Pre-emergence action against STEME (STEME [11]): 90%
Pre-emergence action against VERPE in % (VERPE [2]): 80%
Post-emergence action against POAAN (POAAN [12]): 100%
Pre-emergence action against SETVI (SETVI [13]): 100%
Pre-emergence action against POLCO in % (POLCO [3]): 90%
Post-emergence action against ECHCG (ECHCG [14]): 100%
Pre-emergence action at 320 g/ha against ALOMY in % (ALOMY [4]): 90%
Post-emergence action against AMARE (AMARE [15]): 100%
Post-emergence action against LOLRI (LOLRI [16]): 100%
Post-emergence action against ALOMY (ALOMY [17]): 90%
Post-emergence action against SETVI (SETVI [18]): 90%
Post-emergence action against MATIN (MATIN [19]): 90%
Post-emergence action against VIOTR in % (VIOTR [20]): 80%
Post-emergence action against VERPE (VERPE [21]): 90%
Post-emergence action against POLCO in % (POLCO [22]): 80%
Pre-emergence action against SETVI in % (SETVI [5]): 100%
Pre-emergence action against DIGSA in % (DIGSA): 100%
Pre-emergence action against VIOTR in % (VIOTR [6]): 100%
Post-emergence action against AMARE in % (AMARE [23]): 80%
Post-emergence action against AVEFA in % (AVEFA [24]): 90%
Pre-emergence action against VERPE (VERPE [25]): 90%
Pre-emergence action against LOLRI (LOLRI [26]): 100%
Pre-emergence action against ECHCG (ECHCG [27]): 100%
Pre-emergence action against AMARE (AMARE [28]): 100%
Pre-emergence action against AMARE in % (AMARE [8]): 100%
Pre-emergence action against MATIN (MATIN [29]): 100%
